Reference: patent EP4555995B1, “COSMETIC USE OF A CYCLOPROPENE FATTY ACID FOR INHIBITING SCD ACTIVITY” (Laboratoires d'Anjou, priority 2023, dated 2025)
Where “and” joins values, the source holds several entries; their conditions need not be identical. Equal entries are not always repeated.

Columns and labels:
[1] = test system: cellules de mélanome murin B16; assay: Preliminary cytotoxicity test, WST-8 reduction assay; type: cell-based; settings: for % de cellules viables: 72 h incubation, WST-8, individual replicates
Protocol: Avant cet essai, un essai de cytotoxicité a été réalisé à l'aide d'un essai standard de réduction WST-8, afin de déterminer les concentrations à tester dans cette étude.
(§1) • Modèle biologique : • Type cellulaire : Lignée cellulaire de mélanome murin B16 (= mélanocytes B16) • Conditions de culture : 37°C, 5% CO2 • Milieu de culture : DMEM sans rouge de phénol optimisé pour l'essai, complété par du sérum de veau fœtal à 10%. • Composé testé : acide sterculique 50, 100 et 200 µM (dans 0.066% ethanol) • Essai préliminaire de cytotoxicité • Type de cellule : Cellules de mélanome murin B16 en milieu de culture • Durée d'incubation : 72 heures • Paramètres d'évaluation : Essai de réduction WST-8 et observations morphologiques à l'aide d'un microscope. Après traitement, les cellules sont incubées avec du WST-8 (sel de tétrazolium très soluble dans l'eau) réduit en un produit soluble dans l'eau de couleur orange (formazan) par la succinate déshydrogé-nase (enzyme mitochondriale). Cette transformation est proportionnelle au nombre de cellules vivantes et à leur activité métabolique. La densité optique (DO) des extraits à 450 nm a été enregistrée avec un spectromètre (VERSAmax, Molecular Devices). • Culture et traitement
L'erreur standard de la moyenne (sem) est une mesure de la distance probable entre la moyenne de l'échantillon et la moyenne réelle de la population. Elle est calculée en divisant l'écart-type par la racine carrée de la taille de l'échantillon. Pourcentage deviabilité: viabilité(%) = (ODéchantillon/ODcontrôle) × 100 [formula] [formula]

[2] = test system: cellules de mélanome murin B16 stimulées par le NDP-MSH; assay: Melanin synthesis in B16 melanoma cells stimulated by NDP-MSH (total melanin content, absorbance at 405 nm); type: cell-based; settings: for Teneur en mélanine: NDP-MSH 0,1 µM, 72 h, percent of stimulated control, individual replicates
Description: Dans la présente étude, l'effet blanchissant potentiel de l'acide sterculique a été évalué sur la synthèse de mélanine dans les cellules de mélanome murin B16 stimulées par un analogue stable de l'α-MSH, le NDP-MSH ([Nle4, D-Phe7]-α-Melanocyte Stimulating Hormone).
Le modèle de mélanocyte B16 constitue un modèle approprié pour la recherche d'effets inhibiteurs sur la production de mélanine car il est très réactif (par exemple à une stimulation NDP-MSH), ce qui entraîne une forte modulation de la production de mélanine entre les conditions basales et les conditions stimulées. Cette forte production de mélanine dans des conditions stimulées permet d'identifier les composés présentant des propriétés blanchissantes.
as §1
Des cellules de mélanome B16 ont été ensemencées dans une plaque à 96 puits et incubées dans un milieu de culture pendant 24 heures.
Le milieu a ensuite été remplacé par du milieu de culture, en présence de NDP-MSH à 0,1 µM, contenant ou non : - le solvant témoin (éthanol testé à 0,066 %), • le composé d'essai acide sterculique testé à 50, 100 ou 200 µM, • l'acide kojique de référence testé à 0,5 mM ou 3 mM, • la combinaison du composé testé acide sterculique (50, 100 ou 200 µM) et de l'acide kojique à 0,5 mM.
Les cellules ont été incubées pendant 72 heures. En parallèle, une condition de contrôle non stimulée a été réalisée.
À la fin du temps d'incubation, l'absorbance à 405 nm a été mesurée et la teneur totale en mélanine (extracellulaire et intracellulaire) a été calculée pour chaque échantillon à l'aide d'une courbe standard de mélanine allant de 0,78 à 100 µg/ml.
Les valeurs de fond (interférences potentielles), mesurées dans les puits sans cellules, ont été soustraites aux valeurs calculées afin de considérer l'effet lié à la production de mélanine uniquement.
Les résultats ont été exprimés en pourcentage de mélanine par rapport au contrôle stimulé.

cellules B16 = assay: Total protein quantity (DC Protein Assay) in B16 cells of the melanin test; type: cell-based, murin; settings: 200 µM; concluded from protein content
Protocol: La quantité de protéines totales contenues dans les cellules et les surnageants de chaque réplicat a été mesurée à l'aide du kit DC Protein Assay contre une gamme de BSA avec un lecteur de microplaques à 750 nm (VERSAmax, Molecular Devices).
Kit : DC Protein Assay de BIO-RAD ref 500-0116.
Limite de détection basse : 0,2 mg/ml Limite de détection haute : 2 mg/ml Pour chaque condition de test, la quantité de mélanine a été normalisée par rapport à la quantité de protéines totales.

Compound | % de cellules viables ([1]; AcSter 12 µM) | % de cellules viables ([1]; AcSter 37 µM) | % de cellules viables ([1]; AcSter 111 µM) | % de cellules viables ([1]; AcSter 333 µM) | % de cellules viables ([1]; AcSter 1000 µM) | % de cellules viables ([1]; AcSter 1,5 µM) | effet sur la viabilité ([1]; up to 111 µM, B16 cells, WST-8 (Fig 1)) | effet sur la synthèse de mélanine ([2]; 50 µM, NDP-MSH-stimulated B16 cells) | inhibition relative ([2]; 100 µM and 200 µM, strong, concentration-dependent inhibition of melanin synthesis) [%] | inhibition de la teneur en mélanine ([2]; 100 µM, B16 cells (Fig 2)) | efficacy on melanin content compared with acide kojique à 3mM ([2]; 200 µM, B16 cells (Fig 2)) | inhibition de la teneur en mélanine ([2]; 200 µM, B16 cells (Fig 2)) | Teneur en mélanine ([2]; AS 50 µM, listed as AS) | Teneur en mélanine ([2]; AS 100 µM, listed as AS) | Teneur en mélanine ([2]; AS 200 µM, listed as AS) | viabilité des cellules (cellules B16) | inhibition relative ([2]; 0,5 mM, melanin synthesis in NDP-MSH-stimulated B16 cells) [%] | inhibition relative ([2]; 3 mM, inhibition of the NDP-MSH effect on melanin synthesis) [%] | Teneur en mélanine ([2]; KA 0,5 mM, listed as KA) | Teneur en mélanine ([2]; KA 3 mM, listed as KA)
CCCCCCCCC1=C(CCCCCCCC(=O)O)C1 [acide sterculique, 8-(2-octyl-cyclopropen-1-yl)-octanoic acid] | 112,1381% and 146,2746% and 110,4588% | 82,74032% and 102,0043% and 72,79147% | 112,2056% and 119,9363% and 106,0771% | 26,41552% and 44,06769% and 52,32917% | 1,061339% and 1,910951% and 2,113628% | 133,9982% and 119,6442% and 122,5711% | n'a pas eu d'effet sur la viabilité | n'a eu aucun effet | ≤ 93 | inhibition marquée | aussi efficace que l'acide kojique à 3mM | inhibition marquée | 103,1496% and 125,1337% and 106,9156% | 57,21785% and 56,01605% and 61,96404% | 13,64829% and 13,90374% and 21,16183% | n'inhibe pas la viabilité des cellules |  |  |  | 
O=c1cc(CO)occ1O [acide kojique, reference compound] |  |  |  |  |  |  |  |  |  |  |  |  |  |  |  |  | 65 | 89 | 31,36483% and 49,33155% and 42,04703% | 17,4540% and 20,7219% and 19,5020%
